Measured values taken from patent US20250163119A1, “COMPOUNDS FOR THE TREATMENT OF DIABETES OR OBESITY” (Eli Lilly and Company, priority 2023, published 2025).
Values joined by “and” are separate entries in the source; they are usually repeats but may differ in a detail not shown here. Equal values may be shown once. *1 amine or outer side, *2 acyl side, *3 side chain or, on linkers, in order; H or OH if unused. [ ]: non-standard residue; d: D form. The star is where a group is joined. C20 diacid = O=C(O)CCCCCCCCCCCCCCCCCCC(=O)*; γGlu = O=C(O)[C@H](CCC(=O)[*:2])N[*:1]; εLys = N[C@@H](CCCCN[*:1])C(=O)[*:2]; αMeL = CC(C)C[C@](C)(N)C(=O)O; AEEA = NCCOCCOCC(=O)O; Aib = CC(C)(N)C(=O)O

What was measured:
[1] = Pharmacokinetics in Yucatan mini-pigs, single subcutaneous or intravenous dose; type: in vivo; details: for Tmax: read-out: Tmax
Protocol: Plasma concentrations of compounds were determined by LC/MS methods. For each assay, the compound and an internal standard (IS), were extracted from 100% mouse, rat, pig, or monkey plasma (70 μL) using Isopropanol-Methanol. Two distinct layers were formed upon centrifugation with the compound and the IS located in the supernatant layer. An aliquot of the supernatant (150 μL) was transferred to a Waters Sirocco Protein Precipitation Plate. The supernatant was eluted using a positive pressure manifold. The supernatant was mixed with 100-2 Water-Formic acid (400 μL) in a pretreated Sep-Pak tC18 SPE plate and eluted to waste. The peptide and IS were eluted with Acetonitrile-Formic acid (100 μL) in 2 steps (50 μL each step). The elution (40 μL) from SPE plate was mixed with diluent solution (1.875 μL 5× invitrosol and 3.125 μL 1% formic acid in water, 80 μL). A final sample (10 μl) was loaded onto a Xselect CSH C18 IS column (3.5 μm 2.1×20 mm). The column effluent was directed into a Thermo Fisher Scientific Orbitrap (Exploris 240) mass spectrometer for detection and quantitation.
Male Yucatan mini-pigs were administered a single subcutaneous dose or intravenous dose (19 or 99 nmol/kg) of compound in 40 mM Tris-HCl 5% D-mannitol (pH 8) at a volume of 0.01 or 0.05 mL/kg. Blood was collected from each animal at 0.083 (IV only), 0.5, 3, 6, 24, 48, 72, 96, 168, 240, 336, 408, and 504 hours postdose for pharmacokinetic characterization.

[2] = test system: MHC-II presented peptides on human dendritic cells; assay: MAPPS assay (MHC-Associated Peptide Proteomics); type: cell-based
Outline: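 Peptides eluted from anti-MHC-II immunoprecipitates of day-6 DC lysates were sequenced by MS, mapped onto the parent test molecule, and scored as percentage of donors presenting each region. DCs derived from donor CD14+ cells (IL-4, GM-CSF) received test molecules on day 4, then LPS maturation on day 5.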

[3] = Pharmacokinetics in Sprague Dawley rats, single subcutaneous or intravenous dose (incl. 10, 30, 100 nmol/kg dose response); type: in vivo
[4] = male Yucatan pigs, single subcutaneous dose 19 nmol/kg, individual animal
[5] = male, Yucatan mini-pig, minipig, plasma, iv, 19 nmol/kg, single intravenous dose 19 nmol/kg, individual animal
[6] = male, Yucatan mini-pig, minipig, plasma, iv, 19 nmol/kg, single intravenous dose 19 nmol/kg, mean
[7] = male, Yucatan mini-pig, minipig, plasma, sc, 19 nmol/kg, single subcutaneous dose 19 nmol/kg, Mean
[8] = male, Yucatan mini-pig, minipig, plasma, sc, 19 nmol/kg, single subcutaneous dose 19 nmol/kg, individual animal
[9] = single intravenous dose 19 nmol/kg, male Yucatan pigs, individual animal
[10] = dose response, single subcutaneous dose 10 nmol/kg, male Sprague Dawley rats, individual animal
[11] = dose response, single subcutaneous dose 30 nmol/kg, male Sprague Dawley rats, individual animal
[12] = dose response, single subcutaneous dose 100 nmol/kg, male Sprague Dawley rats, individual animal
[13] = male Sprague Dawley rats, single intravenous dose 190 nmol/kg, individual animal
[14] = male, Sprague Dawley, rat, plasma, iv, 190 nmol/kg, single intravenous dose 190 nmol/kg, Mean
[15] = male, Sprague Dawley, rat, plasma, iv, 190 nmol/kg, single intravenous dose 190 nmol/kg, individual animal
[16] = single subcutaneous dose 190 nmol/kg, male Sprague Dawley rats, individual animal

AUC0-inf ([1]; Yucatan mini-pig, minipig, plasma, sc, male Yucatan pigs, single subcutaneous dose 19 nmol/kg, Mean, read-out: AUC0-inf): 27.6 µM·h
Cmax ([1]; Yucatan mini-pig, minipig, plasma, sc, male Yucatan pigs, single subcutaneous dose 19 nmol/kg, Mean, read-out: Cmax): 170 nM
AUC0-inf [1, 4]: 28.3 µM·h and 26.8 µM·h
CL/F [1, 4]: 0.012 mL/min/kg
Cmax [1, 4]: 159 nM and 181 nM
T1/2 [1, 4]: 70.4 h
clearance [1, 5]: 0.00755 mL/min/kg
half-life [1, 5]: 106 h
clearance [1, 6]: 0.00803 mL/min/kg
half-life [1, 6]: 96.4 h
half-life [1, 7]: 75.6 h
CL/F ([1]; male, Yucatan mini-pig, minipig, plasma, sc, 19 nmol/kg, single subcutaneous dose 19 nmol/kg, Mean, read-out: CL/F (converted)): 0.0116 mL/min/kg
Tmax [1, 7]: 24 h
half-life [1, 8]: 80.8 h
CL/F ([1]; male, Yucatan mini-pig, minipig, plasma, sc, 19 nmol/kg, single subcutaneous dose 19 nmol/kg, individual animal, read-out: CL/F (converted)): 0.0114 mL/min/kg
Tmax [1, 8]: 24 h
AUC0-inf ([1]; minipig, plasma, single intravenous dose 19 nmol/kg, male Yucatan pigs, mean, read-out: AUC0-inf): 39.6 µM·h
C0 ([1]; minipig, plasma, single intravenous dose 19 nmol/kg, male Yucatan pigs, mean, read-out: C0): 534 nM
AUC0-inf [1, 9]: 41.9 µM·h and 37.2 µM·h
C0 [1, 9]: 522 nM and 545 nM
CL [1, 9]: 0.0085 mL/min/kg
T1/2 [1, 9]: 86.8 h
MAPPS Assay >10 donors with diverse MHC ([2]; donors displaying MHC-II peptides / donors tested): 0/10
MAPPS Assay >10 donors with diverse MHC ([2]; percentage of donors displaying MHC-II peptides): 0%
CL/F [3, 10]: 0.175 mL/min/kg and 0.152 mL/min/kg
T1/2 [3, 10]: 18.6 h and 31.5 h
Tmax [3, 10]: 6 h
CL/F [3, 11]: 0.173 mL/min/kg and 0.17 mL/min/kg
T1/2 [3, 11]: 19.6 h and 20.8 h
Tmax [3, 11]: 6 h
CL/F [3, 12]: 0.119 mL/min/kg and 0.124 mL/min/kg
T1/2 [3, 12]: 17.4 h and 15.7 h
CL [3, 13]: 0.0673 mL/min/kg and 0.0512 mL/min/kg
T1/2 [3, 13]: 16.9 h and 18.2 h
clearance [3, 14]: 0.065 mL/min/kg
half-life [3, 14]: 17.5 h
clearance [3, 15]: 0.0765 mL/min/kg
half-life [3, 15]: 17.4 h
half-life ([3]; male, Sprague Dawley, rat, plasma, sc, 10 nmol/kg, dose response, single subcutaneous dose 10 nmol/kg, individual animal): 19.9 h
CL/F ([3]; male, Sprague Dawley, rat, plasma, sc, 10 nmol/kg, dose response, single subcutaneous dose 10 nmol/kg, individual animal, read-out: CL/F (converted)): 0.162 mL/min/kg
half-life ([3]; male, Sprague Dawley, rat, plasma, sc, 10 nmol/kg, dose response, single subcutaneous dose 10 nmol/kg, mean): 23.3 h
CL/F ([3]; male, Sprague Dawley, rat, plasma, sc, 10 nmol/kg, dose response, single subcutaneous dose 10 nmol/kg, mean, read-out: CL/F (converted)): 0.163 mL/min/kg
Tmax ([3]; male, Sprague Dawley, rat, plasma, sc, 10 nmol/kg, dose response, single subcutaneous dose 10 nmol/kg, mean, read-out: Tmax): 18 h
half-life ([3]; male, Sprague Dawley, rat, plasma, sc, 30 nmol/kg, dose response, single subcutaneous dose 30 nmol/kg, individual animal): 19.2 h
CL/F ([3]; male, Sprague Dawley, rat, plasma, sc, 30 nmol/kg, dose response, single subcutaneous dose 30 nmol/kg, individual animal, read-out: CL/F (converted)): 0.19 mL/min/kg
half-life ([3]; male, Sprague Dawley, rat, plasma, sc, 30 nmol/kg, dose response, single subcutaneous dose 30 nmol/kg, mean): 19.9 h
CL/F ([3]; male, Sprague Dawley, rat, plasma, sc, 30 nmol/kg, dose response, single subcutaneous dose 30 nmol/kg, mean, read-out: CL/F (converted)): 0.178 mL/min/kg
Tmax ([3]; male, Sprague Dawley, rat, plasma, sc, 30 nmol/kg, dose response, single subcutaneous dose 30 nmol/kg, mean, read-out: Tmax): 18 h
half-life ([3]; male, Sprague Dawley, rat, plasma, sc, 100 nmol/kg, dose response, single subcutaneous dose 100 nmol/kg, individual animal): 16 h
CL/F ([3]; male, Sprague Dawley, rat, plasma, sc, 100 nmol/kg, dose response, single subcutaneous dose 100 nmol/kg, individual animal, read-out: CL/F (converted)): 0.133 mL/min/kg
Tmax ([3]; male, Sprague Dawley, rat, plasma, sc, 100 nmol/kg, dose response, single subcutaneous dose 100 nmol/kg, individual animal, read-out: Tmax): 24 h
half-life ([3]; male, Sprague Dawley, rat, plasma, sc, 100 nmol/kg, dose response, single subcutaneous dose 100 nmol/kg, mean): 16.4 h
CL/F ([3]; male, Sprague Dawley, rat, plasma, sc, 100 nmol/kg, dose response, single subcutaneous dose 100 nmol/kg, mean, read-out: CL/F (converted)): 0.126 mL/min/kg
Tmax ([3]; male, Sprague Dawley, rat, plasma, sc, 100 nmol/kg, dose response, single subcutaneous dose 100 nmol/kg, mean, read-out: Tmax): 24 h
half-life ([3]; male, Sprague Dawley, rat, plasma, sc, 190 nmol/kg, single subcutaneous dose 190 nmol/kg, individual animal): 14.8 h
CL/F ([3]; male, Sprague Dawley, rat, plasma, sc, 190 nmol/kg, single subcutaneous dose 190 nmol/kg, individual animal, read-out: CL/F (converted)): 0.136 mL/min/kg
Tmax ([3]; male, Sprague Dawley, rat, plasma, sc, 190 nmol/kg, single subcutaneous dose 190 nmol/kg, individual animal, read-out: Tmax): 24 h
half-life ([3]; male, Sprague Dawley, rat, plasma, sc, 190 nmol/kg, single subcutaneous dose 190 nmol/kg, mean): 14.4 h
CL/F ([3]; male, Sprague Dawley, rat, plasma, sc, 190 nmol/kg, single subcutaneous dose 190 nmol/kg, mean, read-out: CL/F (converted)): 0.137 mL/min/kg
Tmax ([3]; male, Sprague Dawley, rat, plasma, sc, 190 nmol/kg, single subcutaneous dose 190 nmol/kg, mean, read-out: Tmax): 24 h
AUC0-inf ([3]; rat, plasma, sc, dose response, single subcutaneous dose 10 nmol/kg, male Sprague Dawley rats, mean, read-out: AUC0-inf): 1.04 µM·h
Cmax ([3]; rat, plasma, sc, dose response, single subcutaneous dose 10 nmol/kg, male Sprague Dawley rats, mean, read-out: Cmax): 23.2 nM
AUC0-inf ([3]; rat, plasma, sc, dose response, single subcutaneous dose 30 nmol/kg, male Sprague Dawley rats, mean, read-out: AUC0-inf): 2.84 µM·h
Cmax ([3]; rat, plasma, sc, dose response, single subcutaneous dose 30 nmol/kg, male Sprague Dawley rats, mean, read-out: Cmax): 60.7 nM
AUC0-inf ([3]; rat, plasma, sc, dose response, single subcutaneous dose 100 nmol/kg, male Sprague Dawley rats, mean, read-out: AUC0-inf): 13.3 µM·h
Cmax ([3]; rat, plasma, sc, dose response, single subcutaneous dose 100 nmol/kg, male Sprague Dawley rats, mean, read-out: Cmax): 294 nM
AUC0-inf ([3]; rat, plasma, sc, single subcutaneous dose 190 nmol/kg, male Sprague Dawley rats, mean, read-out: AUC0-inf): 23.2 µM·h
Cmax ([3]; rat, plasma, sc, single subcutaneous dose 190 nmol/kg, male Sprague Dawley rats, mean, read-out: Cmax): 508 nM
AUC0-inf ([3]; rat, plasma, male Sprague Dawley rats, single intravenous dose 190 nmol/kg, Mean, read-out: AUC0-inf): 50 µM·h
C0 ([3]; rat, plasma, male Sprague Dawley rats, single intravenous dose 190 nmol/kg, Mean, read-out: C0): 2920 nM
CL/F [3, 16]: 0.147 mL/min/kg and 0.128 mL/min/kg
T1/2 [3, 16]: 13.9 h and 14.5 h
Substance: {C20 diacid-εLys-AEEA-γGlu}-GSPSIVTS[αMeL]DVPT[Aib][αMeL]LQKILEQERAEKARQQATEAAEILAQV-NH2 [SEQ ID NO: 25]
peptides displayed on MHC-II complexes ([2]; human dendritic cells from normal donors): no peptides displayed on MHC-II complexes
immunogenicity compared with SEQ ID NO:54 ([2]; in the MAPPs assay and/or the T cell proliferation assay): substantial improvements in immunogenicity over a compound comprising SEQ ID NO:54
AUC0-inf [3, 10]: 1.05 µM·h and 0.972 µM·h and 1.11 µM·h
Cmax [3, 10]: 20.8 nM and 21.9 nM and 26.8 nM
AUC0-inf [3, 11]: 2.64 µM·h and 2.91 µM·h and 2.96 µM·h
Cmax [3, 11]: 55.0 nM and 68.0 nM and 59.1 nM
AUC0-inf [3, 12]: 12.5 µM·h and 14 µM·h and 13.4 µM·h
Cmax [3, 12]: 239 nM and 316 nM and 328 nM
AUC0-inf [3, 13]: 41.3 µM·h and 46.9 µM·h and 61.8 µM·h
C0 [3, 13]: 1610 nM and 3540 nM and 3610 nM
AUC0-inf [3, 16]: 23.4 µM·h and 21.6 µM·h and 24.7 µM·h
Cmax [3, 16]: 466 nM and 475 nM and 582 nM
